Experiment [1] relates to MV4-11 cells. Put plainly: MV4-11 6-day cell growth CTG (CellTiter-Glo) assay. Type of experiment: cell-based. As to conditions: Homo sapiens, MV4-11, 144 h, 6 days, read-out: (c) MLL/WDR5 cell proliferation assay//MLL/WDR5 proliferation MV4:11 Qualified AC50. The gist of the method:
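Exponentially growing MV4-11 AML cells (RPMI 1640, 10% FBS) seeded at 300 cells/well with 12-point 1:3 compound dilutions, top final concentration 50 μM. Viability read by CellTiter-Glo luminescence after 6 days at 37° C; % inhibition vs DMSO-only wells fitted to dose-response for IC50.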
On the technique in general: Cellular ATP, detected with luciferase, serves as a proxy for viable cell number.

The target in experiment [2] is wild type MLL1 four-member complex (MLL1-4C) (Homo sapiens, UniProt P61964). Put plainly: MLL1 LC-MS assay (SAH production). The experiment is classed as biochemical. As to conditions: read-out: (b) MLL LCMS Peptide Val.v.1 Qualified AC50. In short, it runs like this: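 MLL1-4C (30 nM final) was preincubated 20 min with compound (3-fold dilutions, 8 or 12 points) and SAM in Tris-HCl pH 8.0 buffer. H3K4me0 peptide (histone H3[1-21]-biotin) was then added, giving final 2.5 μM SAM and 10 μM substrate, and reactions ran 120 min at rt. After TFA/d4-SAH quench, SAH was quantified by LC-MS/MS and IC50 fitted from control-normalised activity.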

Experiment [3] concerns the target WDR5 (Homo sapiens, UniProt P61964). Put plainly: WDR5 HTRF binding assay. As to conditions: read-out: (a) WDR5 HTRF Pep Val v.1[Inhibitor/IC50]Qualified AC50. In short, it runs like this:
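6 nM WDR5 and 20 nM biotin-MLL1 WIN peptide (3762-3773) were incubated with compound (12-point, 3-fold dilutions) in pH 7.5 Hepes/NaCl/DTT buffer for 20 min at rt. Streptavidin-APC plus anti-His-Eu were then added for 1 hr, with HTRF read at 665/615. IC50 was fit from control-normalized activity; the counter assay used 15 nM biotin-PEG-His peptide.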
On the technique in general: TR-FRET usually uses a lanthanide donor and a delayed reading to cut background.

Molecules are shown by their SMILES. pIC50: −log10 of the molar value. Some results are limits rather than exact numbers.

On to `CCOc1cc([C@@H](C)N2CCc3c(cc(Cn4ccnc4NC)cc3C3CC3)C2=O)ncc1C#N` [Example 82, (R)-6-(1-(5-cyclopropyl-7-((2-(methylamino)-1H-imidazol-1-yl)methyl)-1-oxo-3,4-dihydroisoquinolin-2(1H)-yl)ethyl)-4-ethoxynicotinonitrile], for which the AC50 in experiment [1] and in experiment [2] was 10 to 1000 nM in each case. For the same compound, in experiment [3], the pIC50 was 6.00 to 8.00.
Regarding `CCOc1cc(CN2CCc3c(CN4CC(C)C4)cc(Cn4ccnc4NC)cc3C2=O)cnc1C#N` [Example 25, 3-ethoxy-5-((7-((2-(methylamino)-1H-imidazol-1-yl)methyl)-5-((3-methylazetidin-1-yl)methyl)-1-oxo-3,4-dihydroisoquinolin-2(1H)-yl)methyl)picolinonitrile], the AC50 in experiment [1] and in experiment [2] was 10 to 1000 nM in each case. The pIC50 in experiment [3] was 6.00 to 8.00.
As for `CCOc1cc([C@H](C)N2CCc3c(cc(CCN(C)CC)cc3-c3cn(C)nc3C)C2=O)ncc1F` [Example 145, (S)-5-(1,3-dimethyl-1H-pyrazol-4-yl)-2-(1-(4-ethoxy-5-fluoropyridin-2-yl)ethyl)-7-(2-(ethyl(methyl)amino)ethyl)-3,4-dihydroisoquinolin-1(2H)-one], the AC50 in experiment [1] and in experiment [2] was 10 to 1000 nM throughout. In addition, the pIC50 in experiment [3] is 6.00 to 8.00.
For `CNc1nccn1Cc1cc2c(c(N3CCCC3)c1)CCN([C@@H](C)c1cc(OC)c(F)cn1)C2=O` [Example 89, (S)-2-(1-(5-fluoro-4-methoxypyridin-2-yl)ethyl)-7-((2-(methylamino)-1H-imidazol-1-yl)methyl)-5-(pyrrolidin-1-yl)-3,4-dihydroisoquinolin-1(2H)-one], the AC50 in experiment [1] and in experiment [2] was 10 to 1000 nM each time. Also, in experiment [3], the pIC50 is above 8.00.
`CCOc1cc([C@H](C)N2CCc3c(cc(CCN(C)CC)cc3-c3ccn(C)c(=O)c3Cl)C2=O)ncc1C#N` [Example 194, (S)-6-(1-(5-(3-chloro-1-methyl-2-oxo-1,2-dihydropyridin-4-yl)-7-(2-(ethyl(methyl)amino)ethyl)-1-oxo-3,4-dihydroisoquinolin-2(1H)-yl)ethyl)-4-ethoxynicotinonitrile]: the AC50 in experiment [1] and in experiment [2] was 10 to 1000 nM each time. For the same compound, the pIC50 in experiment [3] is above 8.00.
Take `CCOc1cc([C@H](C)N2CCc3c(CN4CC[C@@H](F)C4)cc(Cn4ccnc4NC)cc3C2=O)ncc1C#N` [Example 11, 4-ethoxy-6-((S)-1-(5-(((R)-3-fluoropyrrolidin-1-yl)methyl)-7-((2-(methylamino)-1H-imidazol-1-yl)methyl)-1-oxo-3,4-dihydroisoquinolin-2(1H)-yl)ethyl)nicotinonitrile]: the AC50 in experiment [1] and in experiment [2] was 10 to 1000 nM throughout. In addition, in experiment [3], the pIC50 was above 8.00.
In the case of `CCOc1cc([C@H](C)N2CCc3c(cc(CCN(C)CC)cc3N3CC[C@H](O)C3)C2=O)ncc1C#N` [Example 210], the AC50 in experiment [1] was 1000 to 25000 nM; in experiment [2] it was 10 to 1000 nM. Also, the pIC50 in experiment [3] is 6.00 to 8.00.
On the same counts, the results for `CCOc1cc([C@H](C)N2CCc3c(cc(CCN(C)CCO)cc3-c3cc(C)ncc3C)C2=O)ncc1C#N` [Example 250] are 10 to 1000 nM, 10 to 1000 nM and 6.00 to 8.00.
For `CCOc1cc(C(C)N2CCc3c(cc(CCN(C)CCOC)cc3-c3cn(C)c(=O)cc3Cl)C2=O)ncc1C#N` (stereo not drawn) [Example 233] the same measures were 10 to 1000 nM, 10 to 1000 nM and above 8.00.
For `CCOc1cc(CN2CCc3c(cc(Cn4ccnc4C)cc3-c3cn(C)c(=O)cc3C(F)F)C2=O)ncc1C#N` [Example 299] the same measures were 10 to 1000 nM, 10 to 1000 nM and above 8.00.
For the compound `CCOc1cc(CN2CCc3c(cc(CCN(C)CC)cc3-c3cc(C)ncc3F)C2=O)ncc1C#N` [Example 154, 4-ethoxy-6-((7-(2-(ethyl(methyl)amino)ethyl)-5-(5-fluoro-2-methylpyridin-4-yl)-1-oxo-3,4-dihydroisoquinolin-2(1H)-yl)methyl)nicotinonitrile], the AC50 in experiment [1] and in experiment [2] was 10 to 1000 nM each time. Besides, the pIC50 in experiment [3] is 6.00 to 8.00.
As for `CNc1nccn1Cc1cc2c(c(C(F)F)c1)CCN([C@@H](C)c1cnc(F)c(OC)c1)C2=O` [Example 93, (S)-5-(difluoromethyl)-2-(1-(6-fluoro-5-methoxypyridin-3-yl)ethyl)-7-((2-(methylamino)-1H-imidazol-1-yl)methyl)-3,4-dihydroisoquinolin-1(2H)-one], the AC50 in experiment [1] and in experiment [2] was 10 to 1000 nM in each case. Also, the pIC50 in experiment [3] is 6.00 to 8.00.
Regarding `COc1cc([C@H](C)N2CCc3c(cc(Cn4ccnc4C)cc3-c3nn(C)c(=O)cc3C(F)(F)F)C2=O)ncc1C#N` [Example 296], the AC50 in experiment [1] and in experiment [2] was 10 to 1000 nM each time. The pIC50 in experiment [3] was 6.00 to 8.00.
On to `CCOc1cc([C@H](C)N2CCc3c(cc(CCN(C)CC)cc3-c3cn(C)nc3C)C2=O)ncc1Cl` [Example 121, (S)-2-(1-(5-chloro-4-ethoxypyridin-2-yl)ethyl)-5-(1,3-dimethyl-1H-pyrazol-4-yl)-7-(2-(ethyl(methyl)amino)ethyl)-3,4-dihydroisoquinolin-1(2H)-one], for which the AC50 in experiment [1] and in experiment [2] was 10 to 1000 nM throughout. In experiment [3], the pIC50 is above 8.00.
With `CCOc1cc([C@H](C)N2CCc3c(cc(CCN(C)CC)cc3-c3ccc(N)nc3C)C2=O)ncc1C#N` [Example 122, (S)-6-(1-(5-(6-amino-2-methylpyridin-3-yl)-7-(2-(ethyl(methyl)amino)ethyl)-1-oxo-3,4-dihydroisoquinolin-2(1H)-yl)ethyl)-4-ethoxynicotinonitrile], the AC50 in experiment [1] and in experiment [2] was 10 to 1000 nM each time. The pIC50 in experiment [3] is above 8.00.
With `CCOc1cc([C@H](C)N2CCc3c(CN4CC[C@H](F)C4)cc(Cn4ccnc4NC)cc3C2=O)ncc1F` [Example 37, 2-((S)-1-(4-ethoxy-5-fluoropyridin-2-yl)ethyl)-5-(((S)-3-fluoropyrrolidin-1-yl)methyl)-7-((2-(methylamino)-1H-imidazol-1-yl)methyl)-3,4-dihydroisoquinolin-1(2H)-one], the AC50 in experiment [1] and in experiment [2] was 10 to 1000 nM in each case. For the same compound, the pIC50 in experiment [3] is 6.00 to 8.00.
Consider `CNc1nccn1Cc1cc(-c2cc(CO)cnc2Cl)c2ccn(Cc3cccc(OC(F)F)c3)c(=O)c2c1` [Example 98, 5-(2-chloro-5-(hydroxymethyl)pyridin-3-yl)-2-(3-(difluoromethoxy)benzyl)-7-((2-(methylamino)-1H-imidazol-1-yl)methyl)isoquinolin-1(2H)-one], for which the AC50 in experiment [1] and in experiment [2] was 10 to 1000 nM throughout. The pIC50 in experiment [3] is above 8.00.
Regarding `CCOc1cc([C@H](C)N2CCc3c(cc(CCN(C)CC)cc3-c3cn(C)c(=O)cc3C)C2=O)ncc1C#N` [Example 131, (S)-6-(1-(5-(1,4-dimethyl-6-oxo-1,6-dihydropyridin-3-yl)-7-(2-(ethyl(methyl)amino)ethyl)-1-oxo-3,4-dihydroisoquinolin-2(1H)-yl)ethyl)-4 ethoxynicotinonitrile], the AC50 in experiment [1] and in experiment [2] was 10 to 1000 nM throughout. For the same compound, in experiment [3], the pIC50 was above 8.00.
Regarding `CCOc1cc([C@H](C)N2CCc3c(cc(Cn4ccnc4C)cc3-n3nc(C)nc3C(F)F)C2=O)ncc1C#N` [Example 294], the AC50 in experiment [1] and in experiment [2] was 10 to 1000 nM each time. In experiment [3], the pIC50 is 6.00 to 8.00.
On to `CCOc1cc([C@H](C)N2CCc3c(cc(Cn4ccnc4C)cc3-c3cn(C)c(=O)cc3C)C2=O)ncc1C#N` [Example 275], for which the AC50 in experiment [1] and in experiment [2] was 10 to 1000 nM throughout. Also, the pIC50 in experiment [3] is above 8.00.
For `CCOc1cc([C@H](C)N2CCc3c(cc(CCN(C)CC)cc3-c3ccc(N)nc3Cl)C2=O)ncc1C#N` [Example 178, (S)-6-(1-(5-(6-amino-2-chloropyridin-3-yl)-7-(2-(ethyl(methyl)amino)ethyl)-1-oxo-3,4-dihydroisoquinolin-2(1H)-yl)ethyl)-4-ethoxynicotinonitrile], the AC50 in experiment [1] and in experiment [2] was 10 to 1000 nM each time. Also, the pIC50 in experiment [3] is above 8.00.
On to `CNc1nccn1Cc1cc2c(c(-c3ccn[nH]3)c1)CCN([C@@H](C)c1cc(OC)c(F)cn1)C2=O` [Example 63, (S)-2-(1-(5-fluoro-4-methoxypyridin-2-yl)ethyl)-7-((2-(methylamino)-1H-imidazol-1-yl)methyl)-5-(1H-pyrazol-5-yl)-3,4-dihydroisoquinolin-1(2H)-one], for which the AC50 in experiment [1] and in experiment [2] was 10 to 1000 nM each time. Also, the pIC50 in experiment [3] was 6.00 to 8.00.
`CCOc1cc([C@H](C)N2CCc3c(CN(C)C4CC4)cc(Cn4ccnc4NC)cc3C2=O)ncc1F` [Example 21, (S)-5-((cyclopropyl(methyl)amino)methyl)-2-(1-(4-ethoxy-5-fluoropyridin-2-yl)ethyl)-7-((2-(methylamino)-1H-imidazol-1-yl)methyl)-3,4-dihydroisoquinolin-1(2H)-one]: the AC50 in experiment [1] and in experiment [2] was 10 to 1000 nM throughout. Besides, the pIC50 in experiment [3] is 6.00 to 8.00.
